ChEMBL document CHEMBL3885861, “Open TG-GATES”

Species: Rattus norvegicus
Assay: Open TG-GATES - Regimen: Daily Repeat
Assay type: toxicity, organism-based, Sprague-Dawley
Design: regimen Daily Repeat, gender Male, age 6 weeks
Conditions: in vivo, po, route gavage; for TP / gamma-GTP / A/G / ALP / ALT / AST / BUN / CRE / Ca / Cl / GLC / IP / K / LDH / Na / PL / RALB / TC / TG: tissue Plasma; for APTT / Bas / Eos / Fbg / Hb / Ht / Lym / MCH / MCHC / MCV / Mono / Neu / PT / Plat / RBC / Ret / WBC: tissue Blood; for KIDNEY_L / KIDNEY_R / KIDNEY_TOTAL: tissue Kidney; for LIVER: tissue Liver
[1] = 300 mg/kg, […], dose level Middle, time 28 day
[2] = 1000 mg/kg, 72 h, dose level High, time 3 day
[3] = 1000 mg/kg, […], dose level High, time 7 day
[4] = 1000 mg/kg, […], dose level High, time 14 day
[5] = 1000 mg/kg, […], dose level High, time 28 day

O=C(O)c1ccccc1Nc1ccccc1 [FENAMIC ACID]
TP [1]: 6.4 g/dL | gamma-GTP [1]: 1 IU/L | TERMINAL_BW [2]: 219.3 g | APTT [2]: 17 s | Bas [2]: 0.3% | Eos [2]: 0.7% | Fbg [2]: 440 mg/dL | Hb [2]: 13.3 g/dL | Ht [2]: 39.3% | Lym [2]: 50.3% | MCH [2]: 20.5 pg | MCHC [2]: 33.8% | MCV [2]: 60.5 fL | Mono [2]: 3.3% | Neu [2]: 44.3% | PT [2]: 14 s | Plat [2]: 127 x10_4/uL | RBC [2]: 650 x10_4/ul | Ret [2]: 5.7% | WBC [2]: 132.2 x10_2/uL | KIDNEY_L [2]: 1.1 g | KIDNEY_R [2]: 1.1 g | KIDNEY_TOTAL [2]: 2.1 g | LIVER [2]: 10.8 g | A/G [2]: 0.9 | ALP [2]: 1423.7 IU/L | ALT [2]: 37.7 IU/L | AST [2]: 58.3 IU/L | BUN [2]: 17 mg/dL | CRE [2]: 0.2 mg/dL | Ca [2]: 11.4 mg/dL | Cl [2]: 109 meq/L | GLC [2]: 165.7 mg/dL | IP [2]: 6.6 mg/dL | K [2]: 4.4 meq/L | LDH [2]: 100.3 IU/L | Na [2]: 143.3 meq/L | PL [2]: 148.7 mg/dL | RALB [2]: 2.5 g/dL | TC [2]: 67 mg/dL | TG [2]: 89.3 mg/dL | TP [2]: 5.3 g/dL | gamma-GTP [2]: 1.3 IU/L | TERMINAL_BW [3]: 253.6 g | TERMINAL_BW [4]: 281.5 g | TERMINAL_BW [5]: 383.3 g | APTT [3]: 16.6 s | Bas [3]: 1% | Eos [3]: 0.7% | Fbg [3]: 290.7 mg/dL | Hb [3]: 12.6 g/dL | Ht [3]: 37% | Lym [3]: 72.3% | MCH [3]: 20.5 pg | MCHC [3]: 34% | MCV [3]: 60.2 fL | Mono [3]: 3% | Neu [3]: 23.3% | PT [3]: 14.1 s | Plat [3]: 156 x10_4/uL | RBC [3]: 616 x10_4/ul | Ret [3]: 7.7% | WBC [3]: 161.4 x10_2/uL | APTT [4]: 32.8 s | Bas [4]: 0.7% | Eos [4]: 0.3% | Fbg [4]: 473.3 mg/dL | Hb [4]: 14 g/dL | Ht [4]: 41.7% | Lym [4]: 53.3% | MCH [4]: 21.1 pg | MCHC [4]: 33.5% | MCV [4]: 63.2 fL | Mono [4]: 3.7% | Neu [4]: 41.7% | PT [4]: 13.2 s | Plat [4]: 171.8 x10_4/uL | RBC [4]: 674 x10_4/ul | Ret [4]: 13.6% | WBC [4]: 149.3 x10_2/uL | APTT [5]: 17.1 s | Bas [5]: 0% | Eos [5]: 0.5% | Fbg [5]: 334.5 mg/dL | Hb [5]: 12.2 g/dL | Ht [5]: 36% | Lym [5]: 69% | MCH [5]: 19.6 pg | MCHC [5]: 34% | MCV [5]: 57.6 fL | Mono [5]: 2.5% | Neu [5]: 27.5% | PT [5]: 13.9 s | Plat [5]: 139.6 x10_4/uL | RBC [5]: 626 x10_4/ul | Ret [5]: 7.5% | WBC [5]: 154.4 x10_2/uL | KIDNEY_L [3]: 1.1 g | KIDNEY_R [3]: 1.1 g | KIDNEY_TOTAL [3]: 2.3 g | KIDNEY_L [4]: 2.1 g | KIDNEY_R [4]: 1.8 g | KIDNEY_TOTAL [4]: 4 g | KIDNEY_L [5]: 1.7 g | KIDNEY_R [5]: 1.6 g | KIDNEY_TOTAL [5]: 3.3 g | LIVER [3]: 12.5 g | LIVER [4]: 13.5 g | LIVER [5]: 18.7 g | A/G [3]: 0.9 | ALP [3]: 1573.3 IU/L | ALT [3]: 38 IU/L | AST [3]: 62.7 IU/L | BUN [3]: 20 mg/dL | CRE [3]: 0.3 mg/dL | Ca [3]: 11.5 mg/dL | Cl [3]: 107 meq/L | GLC [3]: 177.3 mg/dL | IP [3]: 6.3 mg/dL | K [3]: 4.3 meq/L | LDH [3]: 117 IU/L | Na [3]: 144 meq/L | PL [3]: 155.7 mg/dL | RALB [3]: 2.6 g/dL | TC [3]: 87.7 mg/dL | TG [3]: 75.3 mg/dL | TP [3]: 5.6 g/dL | gamma-GTP [3]: 1 IU/L | A/G [4]: 0.9 | ALP [4]: 1270.3 IU/L | ALT [4]: 38.3 IU/L | AST [4]: 57.3 IU/L | BUN [4]: 118.3 mg/dL | CRE [4]: 0.5 mg/dL | Ca [4]: 11.8 mg/dL | Cl [4]: 105.7 meq/L | GLC [4]: 156.7 mg/dL | IP [4]: 11 mg/dL | K [4]: 5.2 meq/L | LDH [4]: 210 IU/L | Na [4]: 145.3 meq/L | PL [4]: 140.7 mg/dL | RALB [4]: 2.9 g/dL | TC [4]: 65 mg/dL | TG [4]: 94.7 mg/dL | TP [4]: 6.3 g/dL | gamma-GTP [4]: 2 IU/L | A/G [5]: 0.9 | ALP [5]: 1013.5 IU/L | ALT [5]: 36.5 IU/L | AST [5]: 61.5 IU/L | BUN [5]: 20 mg/dL | CRE [5]: 0.3 mg/dL | Ca [5]: 10.8 mg/dL | Cl [5]: 105 meq/L | GLC [5]: 182.5 mg/dL | IP [5]: 5.5 mg/dL | K [5]: 4.2 meq/L | LDH [5]: 155.5 IU/L | Na [5]: 144.5 meq/L | PL [5]: 166 mg/dL | RALB [5]: 2.5 g/dL | TC [5]: 80 mg/dL | TG [5]: 92 mg/dL | TP [5]: 5.5 g/dL | gamma-GTP [5]: 1 IU/L
